# According to patent US20080227644A1, “Use of abscisic acid to control fruiting” (priority 2007, published 2008):
# Tests used:
# Type in all cases: in vivo
# [1] = test system: European seedless cucumber (var. Flamingo) plants; test: Foliar spray of greenhouse cucumber plants, fruit abortion; conditions: 100 ppm, sprayed to drip at 20 node growth stage
# Description: European seedless cucumber (var. Flamingo) plants were grown in a greenhouse. At the 20 node growth stage the plants were sprayed to drip with ABA (100 ppm) solution or left unsprayed (control). ABA treated plants had twice the rate of fruit abortion compared to the control plants (Table 6).
# Elegant Lady Peach = test: Spray of trees at petal fall (BBCH stage 69), fruit set; conditions: 1000 ppm at petal fall; at harvest
# Description: (§1) Trees of Lady Elana Apricot and Elegant Lady Peach were sprayed at petal fall (BBCH stage 69) with 1000 ppm ABA or left untreated (Table 5). Percent fruit set was determined at harvest. Spraying Lady Elana Apricot and Elegant Lady Peach trees with ABA reduced percent fruit set (Table 5).
# Lady Elana Apricot = test: as above; conditions: 1000 ppm at petal fall; at harvest
# Description: as §1
# PF-27 peach trees = test: Foliar spray of peach tree limbs at shuck split stage, fruit retention; conditions: 1000 ppm, sprayed to runoff
# Text: Limbs of PF-27 peach trees with fruit at the shuck split stage were flagged; the number of fruit distal to the flagging was counted. The limbs were sprayed to runoff with either water or 1000 ppm abscisic acid (S-ABA; ABA; S-(+)-abscisic acid; +-ABA, (+)-(S)-cis,trans-abscisic acid,(+)-(S)-cis,trans-ABA; S-ABA; (S)-5-(1-hydroxy-2,6,6,-trimethyl-4-oxo-2-cyclohexen-1-yl)-3-methyl-(2Z,4E)-pentadienoic acid; CAS no. 21293-29-8). After 8 and 19 days the fruit were re-counted and the percent fruit retention was determined. Limbs treated with 1000 ppm ABA retained less fruit than limbs treated with water 19 days following treatment (Table 1).
# Katinka plum [2] = test: Spray of plum trees at petal fall (BBCH stage 69), fruit set, yield, fruit weight; conditions: at harvest
# Description: (§2) Trees of Katinka plum were sprayed at petal fall (BBCH stage 69) with 500 ppm or 1000 ppm ABA or left untreated (Table 4). Percent fruit set, average yield and average fruit weight were determined at harvest. Spraying Katinka plum trees with ABA reduced fruit set percentage and yield per tree and increased average fruit weight (Table 4).
# Cacaks plum = test: as above; conditions: at harvest
# Description: as §2, with “Cacaks” for “Katinka”, “3).” for “4).”
# Katinka plum [3] = test: Spray of plum trees at fruitlet set stage, fruit set and fruit size; conditions: 600 ppm at fruitlet set stage
# Description: (§3) Trees of Cacaks Schone plum and Katinka plum were sprayed with 600 ppm ABA at the fruitlet set stage or left untreated. The number of fruit per flower was determined after the normal fruit drop period had ended. At harvest the weight per 100 fruits was measured for both the ABA treated and the untreated trees. Spraying Cacaks Schone or Katinka plum trees with ABA at the fruitlet set stage reduced the number of fruits per flower and increased the average fruit weight compared to untreated trees (Table 2).
# Cacaks Schone plum = test: as above; conditions: 600 ppm at fruitlet set stage
# Description: as §3
substance,measurement,setting,value
"(S)-5-(1-hydroxy-2,6,6,-trimethyl-4-oxo-2-cyclohexen-1-yl)-3-methyl-(2Z,4E)-pentadienoic acid [ABA]",Percentage of basal 18 cucumber fruits per plant that aborted,[1],68%
same,rate of fruit abortion compared to the control plants,[1],twice
same,% Fruit set,Elegant Lady Peach,36%
same,% Fruit set,Lady Elana Apricot,33%
same,percent fruit retention,PF-27 peach trees; 8 days after treatment,97%
same,percent fruit retention,PF-27 peach trees; 19 days after treatment,69%
same,% Fruit set,Katinka plum [2]; 500 ppm at petal fall,28%
same,Fruit weight,Katinka plum [2]; 500 ppm at petal fall,26.2 g
same,Yield,Katinka plum [2]; 500 ppm at petal fall,4.2 kg/tree
same,% Fruit set,Katinka plum [2]; 1000 ppm at petal fall,21%
same,Fruit weight,Katinka plum [2]; 1000 ppm at petal fall,28.0 g
same,Yield,Katinka plum [2]; 1000 ppm at petal fall,4.4 kg/tree
same,% Fruit set,Cacaks plum; 500 ppm at petal fall,20%
same,Fruit weight,Cacaks plum; 500 ppm at petal fall,14.5 g
same,Yield,Cacaks plum; 500 ppm at petal fall,8.0 kg/tree
same,% Fruit set,Cacaks plum; 1000 ppm at petal fall,11%
same,Fruit weight,Cacaks plum; 1000 ppm at petal fall,14.6 g
same,Yield,Cacaks plum; 1000 ppm at petal fall,7.0 kg/tree
same,Fruit/flower,Katinka plum [3]; after normal fruit drop period,0.45
same,100 fruit weight,Katinka plum [3]; at harvest,2.35 kg
same,Fruit/flower,Cacaks Schone plum; after normal fruit drop period,0.09
same,100 fruit weight,Cacaks Schone plum; at harvest,2.23 kg
